# Reference: US20220380374A1, “1,4-DIHYDROBENZO[D]PYRAZOLO[3,4-F][1,3]DIAZEPINE DERIVATIVES AND RELATED COMPOUNDS AS LRRK2, NUAK1 AND/OR TYK2 KINASE MODULATORS FOR THE TREATMENT OF E.G. AUTOIMMUNE DISEASE” (Origenis GMBH, priority 2019, published 2022)
# Columns and labels:
# [1] = target: T1, wt human NUAK1, full length (Homo sapiens, UniProt O60285); experiment: TR-FRET LanthaScreen Eu Kinase Binding Assay, NUAK1; settings: 5 nM Kinase Tracer 236; read-out: IC50, inhibitory activity toward NUAK1
# T1 construct: 8 nM wt human NUAK1, full length (ThermoFisher/USA); purchased ThermoFisher/USA
# T1 sequence (O60285 1-661): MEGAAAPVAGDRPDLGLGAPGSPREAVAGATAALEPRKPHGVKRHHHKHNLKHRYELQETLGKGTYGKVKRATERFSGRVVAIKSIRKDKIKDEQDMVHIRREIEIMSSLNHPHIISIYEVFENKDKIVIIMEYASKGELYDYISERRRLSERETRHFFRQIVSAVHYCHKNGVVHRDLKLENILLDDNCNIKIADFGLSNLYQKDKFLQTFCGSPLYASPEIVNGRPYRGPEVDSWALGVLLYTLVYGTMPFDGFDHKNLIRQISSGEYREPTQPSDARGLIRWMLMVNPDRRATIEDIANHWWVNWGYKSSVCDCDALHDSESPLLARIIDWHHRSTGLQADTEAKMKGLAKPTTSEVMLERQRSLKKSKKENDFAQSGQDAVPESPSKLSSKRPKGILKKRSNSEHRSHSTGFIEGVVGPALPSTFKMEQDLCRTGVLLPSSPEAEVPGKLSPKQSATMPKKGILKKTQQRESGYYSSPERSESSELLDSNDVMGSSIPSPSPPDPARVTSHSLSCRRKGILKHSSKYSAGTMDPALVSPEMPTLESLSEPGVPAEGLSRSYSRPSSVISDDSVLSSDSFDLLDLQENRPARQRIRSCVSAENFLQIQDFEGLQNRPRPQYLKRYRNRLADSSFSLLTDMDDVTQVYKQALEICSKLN
# How it was run: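 TR-FRET tracer-displacement binding with 8 nM full-length wild-type human NUAK1, 2 nM Eu-anti-His antibody and 5 nM Kinase Tracer 236 in 1× Kinase Buffer A (final). Compound, kinase/antibody and tracer incubated 1 h at room temperature; emission ratios analysed per kit protocol.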
# [2] = target: T2, wt human TYK2, catalytic site (Homo sapiens, UniProt P29597); experiment: HTRF KinEASE assay, TYK2; format: biochemical; settings: 1 μM ATP; read-out: IC50, inhibitory activity toward TYK2
# T2 construct: 2 nM wt human TYK2, catalytic site (SignalChem/CAN); purchased SignalChem/CAN
# T2 sequence (P29597 897-1176 limits assumed): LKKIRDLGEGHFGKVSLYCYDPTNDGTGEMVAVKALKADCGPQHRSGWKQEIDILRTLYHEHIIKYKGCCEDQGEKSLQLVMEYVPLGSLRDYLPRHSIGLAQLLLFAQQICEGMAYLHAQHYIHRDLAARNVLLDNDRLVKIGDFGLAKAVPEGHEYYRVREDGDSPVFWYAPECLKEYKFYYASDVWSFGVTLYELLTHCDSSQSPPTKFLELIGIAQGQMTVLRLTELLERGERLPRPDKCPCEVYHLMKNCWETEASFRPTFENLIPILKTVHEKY
# Procedure: Basic protocol for HTRF KinEASE assay (Cisbio/FRA) inhibitor studies involved two steps: Enzymatic step: Addition of 4 μl of test compound in corresponding DMSO dilutions, 4 μl of kinase/substrate mixture, 2 μl of ATP into 384 well small volume plates. Incubation for at least 30 minutes at room temperature.
# Detection step: Addition of 5 μl antibody and 5 μl streptavidin-XL665, read plate after 60 minutes. Data analysis of emission ratios according to KinEASE assay protocol.
# Kinase and assay components were adjusted to final concentrations according to the kit protocol. For TYK2: 2 nM wt human TYK2, catalytic site (SignalChem/CAN), 1 μM HTRF KinEASE-TK Substrate-biotin, 1 μM ATP in 1× Kinase Buffer
Structure (SMILES),IC50 [1],IC50 [2]
"Cc1ccc2c(c1)-c1[nH]ncc1N=C(c1c(F)cc(NCCF)cc1F)N2 [Compound 126, 3,5-difluoro-N-(2-fluoroethyl)-4-(9-methyl-1,6-dihydrobenzo[d]pyrazolo[3,4-f][1,3]diazepin-5-yl)aniline]",10 to 100 nM,100 to 1000 nM
"COc1cc2c(cn1)NC(c1c(F)cccc1F)=Nc1cn[nH]c1-2 [Compound 127, 5-(2,6-difluorophenyl)-9-methoxy-1,6-dihydropyrazolo[4,3-d]pyrido[4,3-f][1,3]diazepine]",10 to 100 nM,10 to 100 nM
"Fc1cccc(F)c1C1=Nc2ccccc2-c2[nH]nc(Cl)c2N1 [Compound 135, 3-chloro-5-(2,6-difluorophenyl)-1,4-dihydrobenzo[d]pyrazolo[3,4-f][1,3]diazepine]",10 to 100 nM,10 to 100 nM
"Cc1cc(F)c2c(c1)-c1[nH]ncc1NC(c1c(F)cccc1F)=N2 [Compound 138, 5-(2,6-difluorophenyl)-7-fluoro-9-methyl-1,4-dihydrobenzo [d]pyrazolo[3,4-f][1,3]diazepine]",10 to 100 nM,100 to 1000 nM
"Fc1cccc(F)c1C1=Nc2cn[nH]c2-c2cc(Cl)ncc2N1 [Compound 147, 9-chloro-5-(2,6-difluorophenyl)-1,6-dihydropyrazolo[4,3-d]pyrido[4,3-f][1,3]diazepine]",10 to 100 nM,10 to 100 nM
"Fc1cccc(Cl)c1C1=Nc2cc(OC3CCOCC3)ccc2-c2[nH]ncc2N1 [Compound 155, 5-(2-chloro-6-fluorophenyl)-8-((tetrahydro-2H-pyran-4-yl)oxy)-1,4-dihydrobenzo[d]pyrazolo[3,4-f][1,3]diazepine]",10 to 100 nM,10 to 100 nM
"Cc1cc2c(cc1C(=O)O)NC(c1c(F)cccc1F)=Nc1cn[nH]c1-2 [Compound 156, 5-(2,6-difluorophenyl)-9-methyl-1,6-dihydrobenzo[d]pyrazolo[3,4-f][1,3]diazepine-8-carboxylic acid]",100 to 1000 nM,10 to 100 nM
"Cc1cc2c(cc1C(=O)NC1CCOCC1)N=C(c1c(F)cccc1F)Nc1cn[nH]c1-2 [Compound 157, 5-(2,6-difluorophenyl)-9-methyl-N-(tetrahydro-2H-pyran-4-yl)-1,4-dihydrobenzo[d]pyrazolo[3,4-f][1,3]diazepine-8-carboxamide]",100 to 1000 nM,< 10 nM
"COc1ccc2c(c1)N=C(c1c(F)cccc1Cl)Nc1cn[nH]c1-2 [Compound 158, 5-(2-chloro-6-fluorophenyl)-8-methoxy-1,4-dihydrobenzo[d]pyrazolo[3,4-f][1,3]diazepine]",10 to 100 nM,10 to 100 nM
"Fc1cccc(F)c1C1=Nc2cc(-c3ccn[nH]3)ccc2-c2[nH]ncc2N1 [Compound 159, 5-(2,6-difluorophenyl)-8-(1H-pyrazol-5-yl)-1,4-dihydrobenzo[d]pyrazolo[3,4-f][1,3]diazepine]",10 to 100 nM,10 to 100 nM
"Cc1ccc2c(c1)-c1[nH]ncc1NC(c1c(F)cccc1Br)=N2 [Compound 161, 5-(2-bromo-6-fluorophenyl)-9-methyl-1,4-dihydrobenzo[d]pyrazolo[3,4-f][1,3]diazepine]",10 to 100 nM,100 to 1000 nM
"CC(=O)Nc1cccc(-c2ccc3c(c2)N=C(c2c(F)cccc2F)Nc2cn[nH]c2-3)c1 [Compound 162, N-(3-(5-(2,6-difluorophenyl)-1,4-dihydrobenzo[d]pyrazolo[3,4-f][1,3]diazepin-8-yl)phenyl)acetamide]",10 to 100 nM,< 10 nM
"COC(=O)Nc1ccc2c(c1)-c1[nH]ncc1NC(c1c(F)cccc1F)=N2 [Compound 165, methyl(5-(2,6-difluorophenyl)-1,4-dihydrobenzo[d]pyrazolo[3,4-f][1,3]diazepin-9-yl)carbamate]",< 10 nM,100 to 1000 nM
"Cc1cc(F)c2c(c1)-c1[nH]nc(Cl)c1NC(c1c(F)cccc1F)=N2 [Compound 166, 3-chloro-5-(2,6-difluorophenyl)-7-fluoro-9-methyl-1,4-dihydrobenzo[d]pyrazolo[3,4-f][1,3]diazepine]",10 to 100 nM,100 to 1000 nM
"CCc1cc(F)c2c(c1)-c1[nH]nc(Cl)c1NC(c1c(F)cccc1F)=N2 [Compound 168, 3-chloro-5-(2,6-difluorophenyl)-9-ethyl-7-fluoro-1,4-dihydrobenzo[d]pyrazolo[3,4-f][1,3]diazepine]",10 to 100 nM,100 to 1000 nM
"COc1ccc2c(c1F)N=C(c1c(F)cccc1F)Nc1cn[nH]c1-2 [Compound 169, 5-(2,6-difluorophenyl)-7-fluoro-8-methoxy-1,4-dihydrobenzo[d]pyrazolo[3,4-f][1,3]diazepine]",10 to 100 nM,10 to 100 nM
"Fc1cccc(F)c1C1=Nc2c(Cl)n[nH]c2-c2cc(Cl)ncc2N1 [Compound 171, 3,9-dichloro-5-(2,6-difluorophenyl)-1,6-dihydropyrazolo[4,3-d]pyrido[4,3-f][1,3]diazepine]",10 to 100 nM,10 to 100 nM
"Cc1ccc2c(c1)-c1[nH]ncc1N=C(c1c(C)cccc1F)N2 [Compound 172, 5-(2-fluoro-6-methylphenyl)-9-methyl-1,6-dihydrobenzo[d]pyrazolo[3,4-f][1,3]diazepine]",100 to 1000 nM,100 to 1000 nM
"Cc1ccc2c(c1)-c1[nH]ncc1NC(c1c(F)ccc(Br)c1Cl)=N2 [Compound 183, 5-(3-bromo-2-chloro-6-fluorophenyl)-9-methyl-1,4-dihydrobenzo [d]pyrazolo[3,4-f][1,3]diazepine]",10 to 100 nM,100 to 1000 nM

# The next lines start with the values.
IC50 [1],IC50 [2],Structure (SMILES)
10 to 100 nM,100 to 1000 nM,"Cc1ccc2c(c1)-c1[nH]nc(Cl)c1NC(c1c(F)cccc1F)=N2 [Compound 143, 3-chloro-5-(2,6-difluorophenyl)-9-methyl-1,4-dihydrobenzo[d]pyrazolo [3,4-f][1,3]diazepine]"
100 to 1000 nM,100 to 1000 nM,"CSc1n[nH]c2c1NC(c1c(F)cccc1F)=Nc1ccccc1-2 [Compound 146, 5-(2,6-difluorophenyl)-3-(methylthio)-1,4-dihydrobenzo[d]pyrazolo [3,4-f][1,3]diazepine]"
100 to 1000 nM,100 to 1000 nM,"OCCNc1cc(F)c(C2=Nc3c[nH]nc3-c3ccccc3N2)c(F)c1 [Compound 150, 2-((4-(2,6-dihydrobenzo[d]pyrazolo[3,4-f][1,3]diazepin-5-yl)-3,5-difluorophenyl)amino)ethan-1-ol]"
100 to 1000 nM,100 to 1000 nM,"Cc1ccc2c(c1)-c1[nH]ncc1NC(c1c(Cl)cccc1Cl)=N2 [Compound 152, 5-(2,6-dichlorophenyl)-9-methyl-1,4-dihydrobenzo[d]pyrazolo[3,4-f][1,3]diazepine]"
10 to 100 nM,10 to 100 nM,"Fc1cccc(Cl)c1C1=Nc2cc(-c3ccn[nH]3)ccc2-c2[nH]ncc2N1 [Compound 160, 5-(2-chloro-6-fluorophenyl)-8-(1H-pyrazol-5-yl)-1,4-dihydrobenzo[d]pyrazolo[3,4-f][1,3]diazepine]"
100 to 1000 nM,100 to 1000 nM,"Cc1ccc2c(c1)-c1[nH]ncc1NC(c1c(F)cccc1I)=N2 [Compound 163, 5-(2-fluoro-6-iodophenyl)-9-methyl-1,4-dihydrobenzo[d]pyrazolo[3,4-f][1,3]diazepine]"
10 to 100 nM,10 to 100 nM,"COC(=O)Nc1ccc2c(c1)N=C(c1c(F)cccc1F)Nc1c[nH]nc1-2 [Compound 164, methyl(5-(2,6-difluorophenyl)-2,4-dihydrobenzo[d]pyrazolo[3,4-f][1,3]diazepin-8-yl)carbamate]"
10 to 100 nM,100 to 1000 nM,"Cc1ccc2c(c1)-c1[nH]ncc1NC(c1c(F)ccc(F)c1F)=N2 [Compound 182, 9-methyl-5-(2,3,6-trifluorophenyl)-1,4-dihydrobenzo[d]pyrazolo [3,4-f][1,3]diazepine]"
